Laboratory results reported in patent publication US20070078083A1, “MODULATION OF NEUORGENESIS BY HDac INHIBITION” (BrainCells, Inc., priority 2005, published 2007).

Legend:
[1] = tested on: rat NeuroD1, GluR2, NFH and GAP43 promoters; assay: In vitro rodent gene reporter assay in rNSC; type: cell-based; conditions: 2 days incubation
Description: Briefly, cultured rodent neural stem cells (rNSC) were transfected by electroporation with a vectors containing promoters specific for the rat NeuroD1, GluR2, NFH and GAP43 genes linked to the fluorescent reporter protein DsRed. All gene reporter constructs were cloned in the same lentiviral vector backbone, and mixed with Nucleofactor solution for electroporation. A GFP vector control was used in parallel to visualize effectiveness of electroporation. Transfected rNSCs were then suspended in test media containing varying concentrations of the HDac inhibitors trichostatin A, valproic acid, MS-275 or apicidin, and a mixture of 0.5 μg renilla luciferase and 5 μg promoter-specific […] luciferase. The cells were incubated in 5% CO2 at 37° C. for 2 days, and then lysed, whereupon the cell extracts were read on a Tecan Genios Pro reader to detect the promoter-specific activation of the reporter constructs.

[2] = tested on: human neural stem cells (hNSCs); assay: Neuronal differentiation of human neural stem cells (TUJ-1 staining); type: cell-based; conditions: for differentiation along a neuronal lineage (in words): hNSCs
[3] = tested on: human neural stem cells (hNSCs); assay: Astrocyte differentiation of hNSCs (GFAP staining); type: cell-based; conditions: cultured hNSCs
Description: Results are shown in FIGS. 2 and 11, which show the lack of astrocyte differentiation of human neural stem cells in the presence of trichostatin A and valproic acid, respectively.

[4] = tested on: neural stem and/or progenitor cells in the dentate gyrus; assay: In vivo chronic dosing study, BrdU-positive cells in dentate gyrus; set-up: species or system rat; conditions: male Fischer F344 rats, 300 mg/kg for 28 days, vs vehicle
Description: Male Fischer F344 rats were treated with 300 mg/kg of valproic acid for 28 days, and then anesthetized and killed by transcardial perfusion of 4% paraformaldehyde at day 28. Brains were rapidly removed and stored in 4% paraformaldehyde for 24 hours and then equilibrated in phosphate buffered 30% sucrose. Free floating 40 micron sections were collected on a freezing microtome and stored in cyroprotectant. Antibodies against BrdU and cells types of interest (e.g., neurons, astrocytes, oligodendrocytes, endothelial cells) were used for detection of cell survival and differentiation. […] The proportion of BrdU cells displaying a lineage-specific phenotype was determined by scoring the co-localization of cell phenotype markers with BrdU using confocal microscopy. […] When possible, 100 or more BrdU-positive cells were scored for each maker per animal. Each cell was manually examined in first full “z”-dimension and only those cells for which the nucleus was unambiguously associated with the lineage-specific marker were scored as positive. The total number of BrdU-labeled cells per hippocampal granule cell layer and subgranular zone were determined using diaminobenzadine stained tissues. Overestimation was corrected using the Abercrombie method for nuclei with empirically determined average diameter of 13 um within a 40 um section.

[5] = tested on: human neural stem cells (hNSCs); assay: Anti-proliferative effects on human neural stem cell clusters (area over fourteen days); type: cell-based; conditions: hNSC clusters after 14 days; basal media control 164%
Description: 7, 2006 (incorporated by reference). […] Cell clusters were imaged and their area measured over fourteen days. […] As the results described in Example 3 indicate, reduction in growth is not due to increased toxicity or reduced survival, and therefore the observed reduced growth of the cell clusters results from decreased proliferation of human neural stem cells in the presence of the HDac inhibitor.

[6] = biological target: mGluR2 (Homo sapiens, UniProt Q14416); conditions: antagonist; read-out: IC50 value against mGluR2; cited from earlier work
[7] = biological target: mGluR3 (Homo sapiens, UniProt Q14832); conditions: antagonist; read-out: IC50 value against mGluR3; cited from earlier work
[8] = tested on: Group I or Group III receptors; conditions: at sub-mM concentrations; cited from earlier work
[9] = biological target: human mGlu2 (Homo sapiens, UniProt Q14416); conditions: agonist; low nanomolar range; read-out: EC50 values against human mGlu2 receptors in vitro; cited from earlier work
[10] = biological target: human mGlu3 (Homo sapiens, UniProt Q14832); conditions: agonist; low nanomolar range; read-out: EC50 values against human mGlu3 receptors in vitro; cited from earlier work
[11] = tested on: KA, AMPA, and NMDA iGlu receptors; conditions: cited from earlier work

Chain of human mGlu3 (Q14832 23-879): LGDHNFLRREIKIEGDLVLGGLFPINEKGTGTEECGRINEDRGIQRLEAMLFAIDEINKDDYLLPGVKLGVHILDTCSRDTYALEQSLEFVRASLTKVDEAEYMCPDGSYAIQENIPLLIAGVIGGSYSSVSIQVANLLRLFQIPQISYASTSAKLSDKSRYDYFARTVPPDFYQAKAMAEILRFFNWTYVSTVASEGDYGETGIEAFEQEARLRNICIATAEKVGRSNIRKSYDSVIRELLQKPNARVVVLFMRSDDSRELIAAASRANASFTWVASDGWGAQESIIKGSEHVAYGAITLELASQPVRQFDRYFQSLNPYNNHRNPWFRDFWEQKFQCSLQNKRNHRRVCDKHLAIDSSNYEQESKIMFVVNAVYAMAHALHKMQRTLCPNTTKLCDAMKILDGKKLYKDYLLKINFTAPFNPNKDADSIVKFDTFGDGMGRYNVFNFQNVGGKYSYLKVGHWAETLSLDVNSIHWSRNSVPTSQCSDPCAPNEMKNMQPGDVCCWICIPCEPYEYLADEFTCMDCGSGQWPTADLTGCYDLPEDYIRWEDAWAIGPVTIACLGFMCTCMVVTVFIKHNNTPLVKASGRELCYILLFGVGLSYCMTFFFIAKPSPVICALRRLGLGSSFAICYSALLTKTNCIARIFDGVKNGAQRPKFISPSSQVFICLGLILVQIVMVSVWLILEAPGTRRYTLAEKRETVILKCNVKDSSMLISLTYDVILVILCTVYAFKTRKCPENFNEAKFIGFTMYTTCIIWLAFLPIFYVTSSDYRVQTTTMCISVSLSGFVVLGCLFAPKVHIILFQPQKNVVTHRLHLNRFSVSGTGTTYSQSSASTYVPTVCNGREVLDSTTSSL
Chain of mGluR3 (Q14832 23-879): as above
Chain of human mGlu2 (Q14416 19-872): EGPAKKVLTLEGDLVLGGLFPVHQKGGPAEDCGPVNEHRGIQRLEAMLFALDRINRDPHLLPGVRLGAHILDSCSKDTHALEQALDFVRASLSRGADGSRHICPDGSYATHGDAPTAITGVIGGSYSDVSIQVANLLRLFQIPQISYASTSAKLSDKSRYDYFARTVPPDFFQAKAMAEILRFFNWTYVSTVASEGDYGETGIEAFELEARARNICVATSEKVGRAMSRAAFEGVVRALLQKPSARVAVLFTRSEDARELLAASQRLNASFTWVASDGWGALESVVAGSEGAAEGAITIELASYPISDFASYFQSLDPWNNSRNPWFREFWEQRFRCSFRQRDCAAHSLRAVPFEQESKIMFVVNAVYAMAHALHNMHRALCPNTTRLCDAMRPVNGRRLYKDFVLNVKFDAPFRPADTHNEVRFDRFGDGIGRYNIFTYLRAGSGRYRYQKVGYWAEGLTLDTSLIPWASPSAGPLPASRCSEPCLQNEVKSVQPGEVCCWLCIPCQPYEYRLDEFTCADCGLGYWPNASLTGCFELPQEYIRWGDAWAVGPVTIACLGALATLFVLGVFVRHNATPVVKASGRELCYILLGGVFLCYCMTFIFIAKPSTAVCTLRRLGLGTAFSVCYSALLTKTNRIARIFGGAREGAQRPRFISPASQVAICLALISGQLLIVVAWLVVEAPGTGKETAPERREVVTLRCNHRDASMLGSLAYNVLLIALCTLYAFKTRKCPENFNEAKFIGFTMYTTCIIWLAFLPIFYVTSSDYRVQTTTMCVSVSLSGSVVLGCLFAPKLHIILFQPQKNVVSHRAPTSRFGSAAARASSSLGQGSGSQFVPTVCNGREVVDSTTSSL
Chain of mGluR2 (Q14416 19-872): as above

Nc1ccccc1NC(=O)c1ccc(CNC(=O)OCc2cccnc2)cc1 [MS-275]
expression of promoters for the neurofilament high (NFH) and growth associated protein 43 (GAP43) genes [1]: promote expression | neurogenic activity, activation of the rat NeuroD1, GluR2, NFH and GAP43 promoters [1]: neurogenic

CCCC(CCC)C(=O)O [Valproic acid, 2-propylpentanoic acid]
differentiation along a neuronal lineage (in words) [2]: continues to promote neuronal differentiation | EC50 ([3]; Homo sapiens, Neural stem cell, highest tested concentration approximately 10.0 μM): > 10 µM | expression of promoters for the neurofilament high (NFH) and growth associated protein 43 (GAP43) genes [1]: promote expression | neurogenic activity, activation of the rat NeuroD1, GluR2, NFH and GAP43 promoters [1]: neurogenic | proliferation in the dentate gyrus (proportion of BrdU-positive cells) [4]: significantly decreased proliferation | area occupied by cells, percent of the starting area [5]: 86%

CC(/C=C/C(=O)NO)=C\[C@@H](C)C(=O)c1ccc(N(C)C)cc1 [Trichostatin A, trichostatin A]
EC50 ([2]; cultured hNSCs, two experiments (Run A, Run B), normalized to neuronal positive control): ~0.00345 µM | differentiation along a neuronal lineage (in words) [2]: permits differentiation of cells along a neuronal lineage | EC50 ([3]; highest concentration tested approximately 31.6 nM): > 0.0316 µM

NC1(C(=O)O)CCc2cc(P(=O)(O)O)ccc21 (racemic) [APICA, (RS)-1-amino-5-phosphonoindan-1-carboxylic acid]
IC50 [6]: ~30 µM | IC50 [7]: ~30 µM | activity against Group I or Group III receptors [8]: no appreciable activity

N[C@@]1(C(=O)O)CO[C@H]2[C@H](C(=O)O)[C@H]21 [LY379268, (−)-2-Oxa-4-aminobicyclohexane-4,6-dicarboxylic acid]
EC50 [9]: < 0.01 µM | EC50 [10]: < 0.01 µM

N[C@](CC1c2ccccc2Oc2ccccc21)(C(=O)O)[C@H]1C[C@@H]1C(=O)O [LY341495, (2S)-2-amino-2-(1S,2S-2-carboxycycloprop-1-yl)-3-(xanth-9-yl) propanoic acid]
activity against KA, AMPA, and NMDA iGlu receptors [11]: substantially inactive
